# Patent US10435402B2, “Bicyclic compounds, compositions and medicinal applications thereof” (Advinus Therapeutics Limited, priority 2015, dated 2019)
# Molecular target: T1, GAL4-DBD/RORγ-LBD (Homo sapiens, UniProt P51449)
# T1 construct: expressed in transfected cells; host or cells: HEK293T
# Test: RORγt transactivation reporter assay (GAL4-DBD/RORγ-LBD, luciferase read out)
# Type: cell-based
# Details: HEK293T cells, GAL4-UAS luciferase reporter, overnight (18-24 hours) incubation
# Procedure, shortened: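 HEK293T cells were transiently co-transfected with GAL4-DBD/RORγt-LBD (SV40-Renilla transfection control) and a 9×GAL4-UAS firefly Luc2P reporter. Compounds (0.4% DMSO in the compound solution) were added 5 h post-transfection in FBS-free DMEM for 18–24 h at 37 °C. IC50 was taken from the normalised Dual-Glo luciferase signal.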
# T1 sequence (P51449 269-508 limits assumed): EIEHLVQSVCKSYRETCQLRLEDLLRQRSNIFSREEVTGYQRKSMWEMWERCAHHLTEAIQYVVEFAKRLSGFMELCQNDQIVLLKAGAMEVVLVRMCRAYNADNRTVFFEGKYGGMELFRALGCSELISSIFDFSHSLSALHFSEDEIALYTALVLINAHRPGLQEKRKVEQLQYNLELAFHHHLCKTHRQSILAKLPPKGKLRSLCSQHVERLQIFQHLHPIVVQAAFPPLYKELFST
# T1 sequence (P04386 1-147 partner limits assumed): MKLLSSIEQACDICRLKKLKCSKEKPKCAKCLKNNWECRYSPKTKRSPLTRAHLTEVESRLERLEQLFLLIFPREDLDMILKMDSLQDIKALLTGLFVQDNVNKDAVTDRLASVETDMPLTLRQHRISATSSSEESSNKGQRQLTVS
row,IC50 [nM],Compound
1,> 5000,"O=C(O)c1ccc(-c2cc(C(=O)c3c(Cl)cccc3C(F)(F)F)n3c2CCCC3)c(F)c1 [Example H-4, 4-[3-[2-chloro-6-(trifluoromethyl)benzoyl]-5,6,7,8-tetrahydroindolizin-1-yl]-3-fluoro-benzoic acid]"
2,< 500,"O=C(O)c1ccc(-c2nc(C(=O)c3c(Cl)ccc(F)c3Cl)n3ccccc23)cc1 [Example I-1, Sodium 4-[3-(2,6-dichloro-3-fluoro-benzoyl)imidazo[1,5-a]pyridin-1-yl]benzoate]"
3,< 500,"O=C(O)c1ccc(-c2cc(Cc3c(F)cccc3Cl)n3ccccc23)cc1 [Example J-1, 4-[3-[(2-chloro-6-fluoro-phenyl)methyl]indolizin-1-yl]benzoic acid]"
4,> 5000,"(2,6-dichlorophenyl)-[1-(4-methylsulfonylphenyl)indolizin-3-yl]methanone [Example A-20]"
5,< 500,ethyl 4-[3-(2-bromo-6-methyl-benzoyl)indolizin-1-yl]benzoate [Example A-66]
6,< 500,ethyl 4-[3-(2-chloro-6-fluoro-benzoyl)-8-fluoro-indolizin-1-yl]-3-fluoro-benzoate [Example A-33]
7,< 500,ethyl 4-[3-(2-chloro-6-fluoro-benzoyl)indolizin-1-yl]-3-fluoro-benzoate [Example A-25]
